# Measurements published in ChEMBL document CHEMBL1641450, “Non-covalent inhibitors of rhinovirus 3C protease” (Bioorg Med Chem Lett, 2011).
# The source made the active and inactive calls. The calls are words filed in the database; no cut-off is given here.
# Assays:
# [1] = test system: rhinovirus A2; test: Inhibition of Human rhinovirus 2 purified 3C protease at 100 uM preincubated for 30 mins measured after 1 hrs by FRET assay
# [2] = Solubility of the compound; format: physicochemical
# [3] = test system: rhinovirus A2; test: Binding affinity to Human rhinovirus 2 purified 15N-labeled 3C protease at 500 uM after 50 mins by NMR assay
# [4] = Binding affinity to Human rhinovirus 2 purified 15N-labeled 3C protease after 50 mins by NMR assay; parameters: species or system rhinovirus A2
# [5] = Inhibition of Human rhinovirus 2 purified 3C protease preincubated for 30 mins measured after 1 hrs by FRET assay; parameters: species or system rhinovirus A2
Compound,inhibition [1],pIC50 [5],pKd [4],further results
Cc1cc2[nH]c(-c3ccccc3)cc(=O)n2n1,43%,–,–,solubility [2]: > 900 µM
c1ccc(-c2ccc3ccccc3n2)cc1 [2-PHENYLQUINOLINE],–,–,< 3,–
Oc1cc(-c2ccccc2)nc2ccccc12,–,–,3.7,solubility [2]: 100 µM
Cn1c(-c2ccccc2)cc(=O)c2ccccc21,–,–,3,–
COc1cc(-c2ccccc2)nc2ccccc12,–,–,< 3,–
COc1ccc2c(=O)cc(-c3cccnc3)[nH]c2c1,< 10%,–,–,–
Nc1cc(-c2ccccc2)nc2ccccc12,–,–,3,–
CCOC(=O)/C=C/c1ccc2[nH]c(-c3cccnc3)cc(=O)c2c1,> 90%,5.3,–,–
O=c1cc(-c2ccccc2)oc2ccccc12 [FLAVONE],–,–,3,–
O=c1cc(-c2cccnc2)[nH]c2cc(C(O)c3ccccc3)ccc12 (racemic),80%,4.7,–,–

# Second part, led by results:
inhibition [1],pIC50 [5],Compound,pKd [4],further results
0%,–,CCOC(=O)CCc1ccc2[nH]c(-c3cccnc3)cc(=O)c2c1,–,Activity [3]: inactive
25%,–,CC(=O)c1ccc2[nH]c(-c3cccnc3)cc(=O)c2c1,–,–
50%,4,N#Cc1ccc2[nH]c(-c3cccnc3)cc(=O)c2c1,–,–
40%,–,Cc1ccc2c(=O)cc(-c3cccnc3)[nH]c2c1,–,–
35%,–,O=c1cc(-c2cccnc2)[nH]c2ccccc12,3.5,solubility [2]: > 1300 µM
> 95%,6,O=Cc1ccc2[nH]c(-c3cccnc3)cc(=O)c2c1,–,–
45%,–,CNC(=O)Cc1ccc2c(=O)cc(-c3cccnc3)[nH]c2c1,–,–
70%,4.2,O=C(O)/C=C/c1ccc2[nH]c(-c3cccnc3)cc(=O)c2c1,–,–
100%,5,O=c1cc(-c2cccnc2)[nH]c2cc(Cc3ccccc3)ccc12,–,solubility [2]: 1 µM
40%,–,CNC(=O)c1ccc2c(=O)cc(-c3cccnc3)[nH]c2c1,–,–
